For one data set, the target named is T1, HCV NS5B genotype 1b (Hepatitis C virus genotype 1b, UniProt Q9WMX2).
T1 construct: The protein was expressed with a 21 amino acid C-terminal deletion to remove transmembrane domain; expressed in transfected cells; host or cells: Huh-7
The experiment in a line: 3D-SCREEN assay (NS5B 3D-Screen platform, luciferase reporter gene). The class given is cell-based. The following applies: EC50_3DS_NS5B. From the text: cDNA encoding HCV NS5B genotype 1b, was cloned in frame with Gal4-DNA Binding Domain. The protein was expressed with a 21 amino acid C-terminal deletion to remove transmembrane domain. Expression of NS5BΔ21/Gal4 DBD fusion protein was under control of SV40 early promoter. 3D-Sensor peptide was cloned in frame with VP16 activation domain. Expression of 3D-Sensor/VP16 AD fusion protein was under control of CMV promoter. Expression of the firefly luciferase reporter gene was inducible by the [Target protein/conformation sensitive peptide/VP16AD] complex.
It is a single-target, cell based assay. Briefly, expression of a reporter gene depends on the interaction of a short peptide, thereafter named 3D-Sensor, and native conformation of the target protein. Whenever the conformation of the target protein is modified, interaction between 3D-sensor and target protein is disrupted and reporter gene is not expressed anymore. Conformation modifiers are identified by loss of expression of reporter gene. NS5B 3D-Screen platform was generated in Huh-7 cell lines by transient transfection of three expression vectors encoding respectively
(i) HCV NS5BΔ21/Gal4-DBD fusion protein
(ii) the 3D-sensor peptide I4/VP16 fusion protein
(iii) the firefly luciferase reporter gene
Huh-7 cells were dissociated the day before transfection and seeded in T175 flasks at a density of 10^7 cells in 30 ml culture medium. Equimolar ratios of vectors were transfected in cell according to optimized jetPEI transfection protocol (PolyPlus Transfection, Illkirch, France) and 10 μg total DNA/10^6 cells. Transfection was performed for 2 hours at 37° C. and 5% CO2 in a humidified atmosphere. After two hours cells were dissociated and seeded in 96 wells plates at a density of 25,000 cells per well and 90 μl culture medium. 10 μl of compounds to be tested were added 2 hours after seeding. Final concentration of DMSO was 1%. Cells were incubated in the presence of compounds for 24 hours after which expression of firefly luciferase reporter gene was quantified. Briefly, culture medium was removed and cells were lysed by addition of 100 μl of lysis buffer containing 125 mM Tris Phosphate ph 7.8, 10 mM EDTA, 5 mM DTT, 50% glycerol and 5% Triton. Plates were vortexed 10 min at 1300 rpm. Cell lysat was transferred in OpaqueWhite Assay 96 well Flat Bottom plates. 100 μl of luciferin solution 1× were added to each well. Luciferin solution contained 40 mM Tris Phosphate ph 7.8, 0.2 mM EDTA, 67 mM DTT, 2.14 mM MgCl2, 5.4 mM MgSO4, 4.7×10^−4 M luciferin, 5.3×10^−4 M ATP and 2.7×10^−4 M Acetyl co enzyme A. Luminescence was immediately measured with Berthold Microlumat Plus LB 96V luminometer with an integration of 0.5 sec. Inhibition was calculated using the formula: % inhibition=(1−(read/average max))*100. Average max=signal in absence of compound

[1] abbreviates: Table 1, 3D-SCREEN assay results, Huh-7 cells, 24 hours with compound, firefly luciferase reporter.
Where [2] appears, read: Table 2, titled Replicon assay results.

Data on 17 compounds can be found in patent US20120128630A1, “1-(6 MEMBERS AZO-HETEROCYCLIC)-PYRROLIN-2-ONE COMPOUNDS AS INHIBITORS OF HEPATITIS C NS5B POLYMERASE, THE PHARAMACEUTICAL COMPOSITION THEREOF AND THEIR THERAPEUTIC USE” (priority 2009, published 2012).

As usually defined, the EC50 is the concentration that produces a half-maximal response. For orientation: melting point means the temperature of the solid-liquid transition.

In turn, `Cc1ccc(C(=O)C2=C(O)C(=O)N(c3ccc(C)nn3)C2c2ccc(C(F)(F)F)cc2)cc1` (stereo not shown) [Example 18, 3-hydroxy-4-(4-methyl-benzoyl)-1-(6-methyl-pyridazin-3-yl)-5-(4-trifluoromethyl-phenyl)-1,5-dihydro-pyrrol-2-one] yielded a melting point of 278 °C. The EC50 on HCV NS5B genotype 1b (setting [1]) came out at 1 µM.

In turn, `COc1ccc(C(=O)C2=C(O)C(=O)N(c3ccc(C)nn3)C2c2ccc(OC(F)(F)F)cc2)cc1` (stereo not shown) [Example 23, 3-hydroxy-4-(4-methoxy-benzoyl)-1-(6-methyl-pyridazin-3-yl)-5-(4-trifluoromethoxy-phenyl)-1,5-dihydro-pyrrol-2-one] registered a melting point of 265 °C. In addition, on HCV NS5B genotype 1b (setting [1]), the EC50 was determined as 1 µM.

For the compound `COc1ccc(C2C(C(=O)c3ccc(OC(F)(F)F)cc3)=C(O)C(=O)N2c2ccc(C)nn2)cc1` (stereo not shown) [Example 24, 3-hydroxy-5-(4-methoxy-phenyl)-1-(6-methyl-pyridazin-3-yl)-4-(4-trifluoromethoxy-benzoyl)-1,5-dihydro-pyrrol-2-one], the melting point was found to be 279 °C. For the same compound, at HCV NS5B genotype 1b (setting [1]), the EC50 was determined as 3 µM.

Compound `Cc1ccc(C(=O)C2=C(O)C(=O)N(c3ccc(C)nn3)C2c2ccc(OC(C)C)cc2)cc1` (stereo not shown) [Example 33, 3-hydroxy-5-(4-isopropoxy-phenyl)-4-(4-methyl-benzoyl)-1-(6-methyl-pyridazin-3-yl)-1,5-dihydro-pyrrol-2-one] showed a melting point of 268 to 272 °C. Besides, the EC50 at HCV NS5B genotype 1b (setting [1]) was found to be 2 µM.

`Cc1ccc(C(=O)C2=C(O)C(=O)N(c3ccc(N(C)C)nn3)C2c2ccc(C(C)C)cc2)cc1` (stereo not shown) [Example 37, 1-(6-dimethylamino-pyridazin-3-yl)-3-hydroxy-5-(4-isopropyl-phenyl)-4-(4-methyl-benzoyl)-1,5-dihydro-pyrrol-2-one] yielded a melting point of 281 °C. Also, the EC50 at HCV NS5B genotype 1b (setting [1]) worked out at 9 µM.

Consider `Cc1ccc(C(=O)C2=C(O)C(=O)N(c3ccc(C)nn3)C2c2cccc(OC(C)C)c2)cc1` (stereo not shown) [Example 38, 3-hydroxy-5-(3-isopropoxy-phenyl)-4-(4-methyl-benzoyl)-1-(6-methyl-pyridazin-3-yl)-1,5-dihydro-pyrrol-2-one], for which the melting point was in the range of 243 to 245 °C. For the same compound, the EC50 at HCV NS5B genotype 1b (setting [1]) was found to be 10 µM.

`Cc1ccc(C(=O)C2=C(O)C(=O)N(c3ccc(C)cn3)C2c2ccc(C(C)C)cc2)cc1` (stereo not shown) [Example 41, 3-hydroxy-5-(4-isopropyl-phenyl)-4-(4-methyl-benzoyl)-1-(5-methyl-pyridin-2-yl)-1,5-dihydro-pyrrol-2-one] registered a melting point of 259 to 261 °C. In addition, the EC50 at HCV NS5B genotype 1b (setting [1]) was found to be 7 µM.

On to `Cc1ccc(N2C(=O)C(O)=C(C(=O)c3ccc(C(C)C)cc3)C2c2ccc(N3CCOCC3)cc2)nn1` (stereo not shown) [Example 58, 3-hydroxy-4-(4-isopropyl-benzoyl)-1-(6-methyl-pyridazin-3-yl)-5-(4-morpholin-4-yl-phenyl)-1,5-dihydro-pyrrol-2-one], for which the melting point fell in the range of 293 to 294 °C. Moreover, the EC50 on HCV NS5B genotype 1b (setting [1]) was determined as 5 µM.

Regarding `Cc1ccc(N2C(=O)C(O)=C(C(=O)c3ccc(C(C)C)cc3)C2c2ccc(C(C)C)cc2)cn1.Cl` (stereo not shown) [Example 66, 5-[3-hydroxy-4-(4-isopropyl-benzoyl)-5-(4-isopropyl-phenyl)-2-oxo-2,5-dihydro-pyrrol-1-yl]-2-methyl-pyridinium; chloride], the melting point was determined as 165 °C. Besides, at HCV NS5B genotype 1b (setting [1]), the EC50 was 2 µM.

In turn, `COCCOc1ccc(C(=O)C2=C(O)C(=O)N(c3ccc(C)nn3)C2c2ccc(OC(F)(F)F)cc2)cc1` (stereo not shown) [Example 85, 3-Hydroxy-4-[4-(2-methoxy-ethoxy)-benzoyl]-1-(6-methyl-pyridazin-3-yl)-5-(4-trifluoromethoxy-phenyl)-1,5-dihydro-pyrrol-2-one] registered a melting point of 216 to 219 °C. On HCV NS5B genotype 1b (setting [2]), this compound displayed a 50% effective concentration (EC50) of less than 10 µM.

In the case of `Cc1ccc(N2C(=O)C(O)=C(C(=O)c3ccc(C(C)C)cc3)C2c2ccc(Cl)cc2)nn1` (stereo not shown) [Example 87, 5-(4-chloro-phenyl)-3-hydroxy-4-(4-isopropyl-benzoyl)-1-(6-methyl-pyridazin-3-yl)-1,5-dihydro-pyrrol-2-one], the melting point fell in the range of 258 to 260 °C. At HCV NS5B genotype 1b (setting [2]), this compound displayed an EC50 of less than 10 µM.

`CCOc1ccc(C(=O)C2=C(O)C(=O)N(c3ccc(C)nn3)C2c2ccc(OC(F)(F)F)cc2)cc1` (stereo not shown) [Example 101, 4-(4-ethoxy-benzoyl)-3-hydroxy-1-(6-methyl-pyridazin-3-yl)-5-(4-trifluoromethoxy-phenyl)-1,5-dihydro-pyrrol-2-one] yielded a melting point of 255 to 257 °C. On HCV NS5B genotype 1b (setting [2]), this compound registered an EC50 of less than 10 µM.

`Cc1ccc(N2C(=O)C(O)=C(C(=O)c3ccc(C(C)C)cc3)C2c2ccc(OC(C)C)cn2)nn1` (stereo not shown) [Example 121, 3-hydroxy-5-(5-isopropoxy-pyridin-2-yl)-4-(4-isopropyl-benzoyl)-1-(6-methyl-pyridazin-3-yl)-1,5-dihydro-pyrrol-2-one]: the melting point was in the range of 243 to 245 °C. On HCV NS5B genotype 1b (setting [2]), the EC50 was less than 10 µM.

As to `Cc1ccc(N2C(=O)C(O)=C(C(=O)c3ccc(C(F)(F)F)nc3)C2c2ccc(OC(F)(F)F)cc2)nn1` (stereo not shown) [Example 126, 3-hydroxy-1-(6-methyl-pyridazin-3-yl)-5-(4-trifluoromethoxy-phenyl)-4-(6-trifluoromethyl-pyridine-3-carbonyl)-1,5-dihydro-pyrrol-2-one], the melting point stood at 172 °C. This compound also had an EC50 at HCV NS5B genotype 1b (setting [2]) of less than 10 µM.

Turning to `Cc1ccc(N2C(=O)C(O)=C(C(=O)c3ccc(C(C)C)cc3)C2c2ccc(N(C)C)cc2)nn1` (stereo not shown) [Example 135, 5-(4-dimethylamino-phenyl)-3-hydroxy-4-(4-isopropyl-benzoyl)-1-(6-methyl-pyridazin-3-yl)-1,5-dihydro-pyrrol-2-one], the melting point is 283 to 286 °C. The concentration giving a half-maximal response (EC50) at HCV NS5B genotype 1b (setting [2]) was less than 10 µM.

Compound `Cc1ccc(N2C(=O)C(O)=C(C(=O)c3ccc(C(C)C)cc3)C2c2ccc(Cn3nccn3)cc2)nn1` (stereo not shown) [Example 147, 3-hydroxy-4-(4-isopropyl-benzoyl)-1-(6-methyl-pyridazin-3-yl)-5-(4-[1,2,3]triazol-2-ylmethyl-phenyl)-1,5-dihydro-pyrrol-2-one] showed a melting point of 285 °C. The same compound registered a concentration giving a half-maximal response (EC50) on HCV NS5B genotype 1b (setting [2]) of less than 10 µM.

In turn, `Cc1ccc(N2C(=O)C(O)=C(C(=O)c3ccc(C(C)C)cc3)[C@@H]2c2ccc(C(F)(F)F)cc2)nn1` [Example 190, 3-hydroxy-4-(4-isopropyl-benzoyl)-1-(6-methyl-pyridazin-3-yl)-5(S)-(4-trifluoromethyl-phenyl)-1,5-dihydro-pyrrol-2-one] came in with a melting point of 252 °C. The same compound yielded an EC50 at HCV NS5B genotype 1b (setting [2]) of less than 10 µM.
